Reference: patent US20110060009A1, “Hydroxamate-Based Inhibitors of Deacetylases” (NOVARTIS AG, priority 2009, published 2011)

Key:
HDAC-1 = target: T1, HDAC-1 (Homo sapiens, UniProt Q13547); test: HDAC Inhibition Assay (purified GST-HDAC protein); type: biochemical
T1 construct: made in house; host or cells: Sf9 or Sf21 insect cells (baculovirus, donor vector pFB-GSTX3)
Source text: The baculovirus donor vector pFB-GSTX3 is used to generate a recombinant baculovirus that expresses the HDAC polypeptide. Transfer vectors containing the HDAC coding region are transfected into the DH10Bac cell line (GIBCO) and plated on selective agar plates. Colonies without insertion of the fusion sequence into the viral genome (carried by the bacteria) are blue. Single, white colonies are picked and viral DNAs (bacmid) are isolated from the bacteria by standard plasmid purification procedures. Sf9 cells or Sf21 (American Type Culture Collection) cells are then transfected in […] flasks with the viral DNA using Cellfectin reagent.
Virus-containing media is collected from the transfected cell culture and used for infection to increase its titer. Virus-containing media obtained after two rounds of infection is used for large-scale protein expression. For large-scale protein expression 100 cm^2 round tissue culture plates are seeded with 5×10^7 cells/plate and infected with 1 mL of virus-containing media (at an approximately MOI of 5). After 3 days, the cells are scraped off the plate and centrifuged at 500 rpm for 5 minutes. Cell pellets from 10-20, 100 cm^2 plates, are re-suspended in 50 mL of ice-cold lysis buffer (25 mM tris-HCl, pH 7.5, 2 mM EDTA, 1% NP-40, 1 mM DTT, 1 mM P MSF). The cells are stirred on ice for 15 minutes and then centrifuged at 5,000 rpms for 20 minutes.
The centrifuged cell lysate is loaded onto a 2 mL glutathione-sepharose column (Pharmacia) and is washed thrice with 10 mL of 25 mM tris-HCl, pH 7.5, 2 mM EDTA, 1 mM DTT, 200 mM NaCl. The GST-tagged proteins are then eluted by 10 applications (1 mL each) of 25 mM tris-HCl, pH 7.5, 10 mM reduced-glutathione, 100 mM NaCl, 1 mM DTT, 10% glycerol and stored at −70° C.
HDAC assays with purified GST-HDAC protein are carried out in a final volume of 30 μL containing 15 ng of GST-HDAC protein, 20 mM tris-HCl, pH 7.5, 1 mM MnCl2, 10 mM MgCl2, 1 mM DTT, 3 μg/mL poly(Glu,Tyr) 4:1, 1% DMSO, 2.0 μM ATP (γ-[^33P]-ATP 0.1 μCi). The activity is assayed in the presence or absence of inhibitors. The assay is carried out in 96-well plates at ambient temperature for 15 minutes under conditions described below and terminated by the addition of 20 μL of 125 mM EDTA. Subsequently, 40 μL of the reaction mixture are transferred onto EMMOBILON-PVDF membrane (Millipore) previously soaked for 5 minutes with methanol, rinsed with water, then soaked for 5 minutes with 0.5% H3PO4 and mounted on vacuum manifold with disconnected vacuum source. After spotting all samples, a vacuum is connected and each well-rinsed with 200 μL 0.5% H3PO4. Membranes are removed and washed four times on a shaker with 1.0% H3PO4, once with ethanol. Membranes are counted after drying at ambient temperature, mounting in Packard TopCount 96-well frame, and addition of 10 μL/well of MICROSCINT™ (Packard). IC50 values are calculated by linear regression analysis of the percentage inhibition of each compound in duplicate, at 4 concentrations (usually 0.01, 0.1, 1 and 10 μM).
• Input: 3×4 μL stopped assay on IMMOBILON membrane, not washed • Background (3 wells): assay with H2O instead of enzyme • Positive control (4 wells): 3% DMSO instead of compound • Bath control (1 well): no reaction mix
IC50 values are calculated by logarithmic regression analysis of the percentage inhibition of each compound at 4 concentrations (usually 3- or 10-fold dilution series starting at 10 μM). In each experiment, the actual inhibition by reference compound is used for normalization of IC50 values to the basis of an average value of the reference inhibitor:
Normalized IC50=measured IC50 average ref. IC50/measured ref. IC50

HCT116 = HCT116 IC50 (Table 2, no method described); type: cell-based; conditions: Homo sapiens, HCT-116

T1 sequence (Q13547 whole entry, species assumed): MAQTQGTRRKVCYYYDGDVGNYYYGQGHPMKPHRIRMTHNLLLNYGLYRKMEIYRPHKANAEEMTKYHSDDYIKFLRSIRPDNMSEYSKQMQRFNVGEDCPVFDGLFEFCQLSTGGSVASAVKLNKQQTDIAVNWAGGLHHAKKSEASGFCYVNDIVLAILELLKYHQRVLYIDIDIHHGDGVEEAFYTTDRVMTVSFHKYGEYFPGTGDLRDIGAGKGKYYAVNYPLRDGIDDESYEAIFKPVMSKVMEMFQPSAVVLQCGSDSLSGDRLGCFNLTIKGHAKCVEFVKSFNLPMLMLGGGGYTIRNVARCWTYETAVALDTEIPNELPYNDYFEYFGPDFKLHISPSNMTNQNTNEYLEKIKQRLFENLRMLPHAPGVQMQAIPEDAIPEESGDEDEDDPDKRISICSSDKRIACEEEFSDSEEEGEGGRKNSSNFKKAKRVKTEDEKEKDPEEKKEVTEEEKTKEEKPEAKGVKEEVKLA

Row | IC50 (HDAC-1) [nM] | IC50 (HCT116) [nM] | SMILES
1 | 380 |  | CC(c1ccc(/C=C/C(=O)NO)cc1)N1CCC[C@H]1CN1CCCC1 (stereo partly drawn) [Cpd 16, (E)-N-Hydroxy-3-{4-[1-((S)-2-pyrrolidin-1-ylmethyl-pyrrolidin-1-yl)-ethyl]-phenyl}-acrylamide]
2 | 1.7 |  | Cc1[nH]c2ccccc2c1C[C@H]1CCCN1Cc1ccc(/C=C/C(=O)NO)cn1 [Cpd 26, (E)-N-Hydroxy-3-{6-[(R)-2-(2-methyl-1H-indol-3-ylmethyl)-pyrrolidin-1-ylmethyl]-pyridin-3-yl}-acrylamide]
3 | 1.7 |  | Cc1[nH]c2ccccc2c1C[C@H]1C[C@H](O)CN1Cc1ccc(/C=C/C(=O)NO)cn1 [Cpd 28, (E)-N-Hydroxy-3-{6-[(2S,4S)-4-hydroxy-2-(2-methyl-1H-indol-3-ylmethyl)-pyrrolidin-1-ylmethyl]-pyridin-3-yl}-acrylamide]
4 | 0.7 |  | Cc1nn(-c2ccccc2)c(C)c1C[C@H]1C[C@H](O)CN1Cc1ccc(/C=C/C(=O)NO)cc1 [Cpd 33, (E)-3-{4-[(2S,4S)-2-(3,5-Dimethyl-1-phenyl-1H-pyrazol-4-ylmethyl)-4-hydroxy-pyrrolidin-1-ylmethyl]-phenyl}-N-hydroxy-acrylamide]
5 | 27 |  | Cc1nn(-c2ccccc2)c(C)c1C(O)[C@H]1C[C@H](O)CN1Cc1ccc(/C=C/C(=O)NO)cc1 (stereo partly drawn) [Cpd 34, (E)-3-(4-{(2R,4S)-2-[(3,5-Dimethyl-1-phenyl-1H-pyrazol-4-yl)-hydroxy-methyl]-4-hydroxy-pyrrolidin-1-ylmethyl}-phenyl)-N-hydroxy-acrylamide]
6 | 20 |  | O=C(/C=C/c1ccc(CN2CCC[C@@H]2Cc2nc(-c3ccccc3)no2)cc1)NO [Cpd 39, (E)-N-Hydroxy-3-{4-[(R)-2-(3-phenyl-[1,2,4]oxadiazol-5-ylmethyl)-pyrrolidin-1-ylmethyl]-phenyl}-acrylamide]
7 | 170 |  | O=C(/C=C/c1ccc(CN2C[C@H](O)C[C@@H]2Cn2cc(-c3cccnc3)nn2)cc1)NO [Cpd 41, (E)-N-Hydroxy-3-{4-[(2R,4R)-4-hydroxy-2-(4-pyridin-3-yl-[1,2,3]triazol-1-ylmethyl)-pyrrolidin-1-ylmethyl]-phenyl}-acrylamide]

Further lines, the compound ahead of its results:

Row | SMILES | IC50 (HDAC-1) [nM] | IC50 (HCT116) [nM]
8 | O=C(/C=C/c1ccc(CN2CCC[C@H]2Cc2c[nH]c3ccccc23)cc1)NO [Cpd 1, (E)-N-Hydroxy-3-{4-[(S)-2-(1H-indol-3-ylmethyl)-pyrrolidin-1-ylmethyl]-phenyl}-acrylamide] | 10 | 100
9 | O=C(/C=C/c1ccc(CN2CCC[C@@H]2Cc2c[nH]c3ccccc23)cc1)NO [Cpd 2, (E)-N-Hydroxy-3-{4-[(R)-2-(1H-indol-3-ylmethyl)-pyrrolidin-1-ylmethyl]-phenyl}-acrylamide] | 0.65 | 3
10 | Cc1[nH]c2ccccc2c1C[C@H]1CCCN1Cc1ccc(/C=C/C(=O)NO)cc1 [Cpd 4, (E)-N-Hydroxy-3-{4-[(R)-2-(2-methyl-1H-indol-3-ylmethyl)-pyrrolidin-1-ylmethyl]-phenyl}-acrylamide] | 0.65 | 0.4
11 | CC(C)CC1CCCN1Cc1ccc(/C=C/C(=O)NO)cc1 (stereo not shown) [Cpd 5, (E)-N-Hydroxy-3-[4-(2-isobutyl-pyrrolidin-1-ylmethyl)-phenyl]-acrylamide] | 8 | 
12 | O=C(/C=C/c1ccc(CN2CCCC2Cc2cccnc2)cc1)NO (stereo not shown) [Cpd 6, (E)-N-Hydroxy-3-[4-(2-pyridin-3-ylmethyl-pyrrolidin-1-ylmethyl)-phenyl]-acrylamide] | 5 | 
13 | O=C(/C=C/c1ccc(CN2CCC[C@H]2Cc2c[nH]c3ccccc23)c(F)c1)NO [Cpd 8, (E)-3-{3-Fluoro-4-[(S)-2-(1H-indol-3-ylmethyl)-pyrrolidin-1-ylmethyl]-phenyl}-N-hydroxy-acrylamide] | 10 | 83
14 | O=C(/C=C/c1ccc(CN2CCC[C@@H]2Cc2c[nH]c3ccccc23)c(F)c1)NO [Cpd 9, (E)-3-{3-Fluoro-4-[(R)-2-(1H-indol-3-ylmethyl)-pyrrolidin-1-ylmethyl]-phenyl}-N-hydroxy-acrylamide] | 1.3 | 3
